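Assay format: 96-well plates, 48-hour exposure. The concentration for full growth arrest is given as TGI.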 Where a SMILES comes first, the peptide text is derived from it. The star is where a group is joined. Boc = CC(C)(C)OC(=O)*; OtBu = CC(C)(C)O*
How the values were obtained:
Assay in all cases: inhibition of tumour cell growth, NCI panel, 48 h
U251 CNS = test system: U251 CNS
RPMI-8226 leukemia = test system: RPMI-8226 leukemia
COLO 205 colon = test system: COLO 205 colon
UACC-257 melanoma = test system: UACC-257 melanoma
RXF 393 renal = test system: RXF 393 renal
OVCAR-8 ovarian = test system: OVCAR-8 ovarian
SK-MEL-28 melanoma = test system: SK-MEL-28 melanoma
PC-3 prostate = test system: PC-3 prostate
SF-268 CNS = test system: SF-268 CNS
K-562 leukemia = test system: K-562 leukemia
MDA-MB-435 = test system: MDA-MB-435
OVCAR-3 ovarian = test system: OVCAR-3 ovarian
NCI/ADR-RES ovarian = test system: NCI/ADR-RES ovarian
LOX IMVI melanoma = test system: LOX IMVI melanoma
BT-549 breast = test system: BT-549 breast
SF-295 CNS = test system: SF-295 CNS
OVCAR-5 ovarian = test system: OVCAR-5 ovarian
MALME-3M melanoma = test system: MALME-3M melanoma
786-0 renal = test system: 786-0 renal
SK-MEL-5 melanoma = test system: SK-MEL-5 melanoma

| Compound | TGI (U251 CNS) [µM] | TGI (RPMI-8226 leukemia) [µM] | TGI (COLO 205 colon) [µM] | TGI (UACC-257 melanoma) [µM] | TGI (RXF 393 renal) [µM] | TGI (OVCAR-8 ovarian) [µM] | TGI (SK-MEL-28 melanoma) [µM] | TGI (PC-3 prostate) [µM] | TGI (SF-268 CNS) [µM] | TGI (K-562 leukemia) [µM] | TGI (MDA-MB-435) [µM] | TGI (OVCAR-3 ovarian) [µM] | TGI (NCI/ADR-RES ovarian) [µM] | TGI (LOX IMVI melanoma) [µM] | TGI (BT-549 breast) [µM] | TGI (SF-295 CNS) [µM] | TGI (OVCAR-5 ovarian) [µM] | TGI (MALME-3M melanoma) [µM] | TGI (786-0 renal) [µM] | TGI (SK-MEL-5 melanoma) [µM] |
| --- | --- | --- | --- | --- | --- | --- | --- | --- | --- | --- | --- | --- | --- | --- | --- | --- | --- | --- | --- | --- |
| CC(C)C1CC(CO)(CNc2nc(N)nc(Cl)c2C=O)C1 (stereo not drawn) | 10.6 | > 100 | 28 | 6.06 | 28.3 | 8.33 | 3.62 | 5.16 | > 23.7 | 6.15 | 4.58 | 8.77 | 23.8 | 3.81 | 52.2 | 44.4 | 96.9 | 44.3 | > 100 | – |
| Cc1ccc(Nc2nc3ccccc3nc2NS(=O)(=O)c2ccc(N)cc2)cc1 | > 100 | > 100 | > 100 | > 100 | > 100 | > 100 | > 100 | > 100 | > 100 | > 100 | > 100 | > 100 | > 100 | > 100 | > 100 | > 100 | > 100 | > 100 | > 100 | > 100 |
| CC(C)=CCN1c2ccccc2[C@@]2(CC=C(C)C)CCN(C)[C@@H]12 | 40.5 | 51 | 26.8 | – | > 100 | 90.2 | > 100 | > 100 | > 100 | 48.2 | 54.3 | 57.3 | 53.5 | 34 | > 100 | 46.6 | > 100 | 38.4 | 53 | 33.2 |
| COc1cc(Nc2nc(NS(=O)(=O)c3cc(C)c(Cl)cc3S)n[nH]2)cc(OC)c1OC | > 100 | > 100 | > 100 | > 100 | > 100 | > 100 | > 100 | > 100 | > 100 | > 100 | > 100 | > 100 | > 100 | > 100 | > 100 | > 100 | > 100 | > 100 | > 100 | > 100 |
| CCc1c(N=[N+]=[N-])c2ccccc2oc1=O | > 100 | > 100 | > 100 | > 100 | > 100 | > 100 | > 100 | > 100 | > 100 | > 100 | > 100 | > 100 | > 100 | > 100 | > 100 | > 100 | – | > 100 | > 100 | – |
| CC(C)CCNC(=O)c1ccc(CNC(=O)/C=C/c2ccc3c(c2)-c2ccccc2C3)cc1 | 65.2 | > 100 | > 100 | > 100 | 82.6 | 71.4 | > 100 | > 100 | > 100 | > 100 | > 100 | > 100 | > 100 | > 100 | > 100 | > 100 | > 100 | 45.8 | 81.1 | > 100 |
| COC(=O)C#CC1(O)C=CC(=O)C=C1 | – | 2.67 | – | 3.64 | 3.76 | 15.4 | 1.67 | 5.76 | 3.18 | – | 1.28 | 1.6 | > 100 | 1.9 | 3.42 | > 41.8 | 10.4 | 4.48 | 1.82 | – |
| O=C1C(CN2CCCC2)CCC1CN1CCCC1 (stereo not drawn) | > 100 | 34.9 | 17.5 | 32.6 | 37.2 | 37.5 | 33.9 | > 55.9 | 46.2 | > 33.4 | 32.9 | 32.1 | 56.8 | > 51.9 | 31.8 | > 100 | > 55.9 | 29 | 29.8 | 31.9 |
| CCOC(=O)c1cn2c(n1)sc1cc([N+](=O)[O-])ccc12 | > 100 | > 100 | > 100 | > 100 | > 100 | > 100 | > 100 | > 100 | > 100 | > 100 | > 100 | > 100 | > 100 | > 100 | > 100 | > 100 | > 100 | > 100 | > 100 | > 100 |
| COc1ccc(CC(COS(=O)(=O)c2ccc(C)cc2)NS(=O)(=O)c2ccc(C)cc2)cc1 (stereo not drawn) | 26.2 | > 100 | 34.3 | 67.1 | 17.1 | > 100 | 35.2 | 38.9 | 39 | > 100 | 28.5 | 27.8 | > 52.7 | > 100 | 23.7 | 33.6 | 39.9 | 27.3 | 53.1 | 24.6 |
| COc1cc(N(CCC#N)CCC#N)ccc1/C(N=Nc1cccc([N+](=O)[O-])c1)=N\NC(=O)c1ccc(C)cc1 | > 100 | > 100 | > 100 | 60.9 | > 100 | > 100 | > 100 | > 100 | > 100 | > 100 | > 100 | > 100 | > 100 | > 100 | > 100 | > 100 | > 100 | > 100 | > 100 | > 100 |
| CCOC(=O)c1c2ccccc2n2c(=O)n(-c3ccccc3)nnc12 | > 100 | > 100 | > 100 | > 100 | > 100 | > 100 | > 100 | > 100 | > 100 | 47.3 | > 100 | > 100 | > 100 | > 100 | > 100 | > 49.1 | > 100 | > 100 | > 100 | 41.7 |
| CC(C)(C)OC(=O)CC(NC(=O)OC(C)(C)C)C(=O)NC(Cc1ccccc1)C(N)=O (stereo not drawn) (Boc-Asp(OtBu)-Phe-NH2; configuration not given here) | > 100 | > 100 | > 100 | > 100 | > 100 | > 100 | > 100 | > 100 | > 100 | > 100 | > 100 | > 100 | > 100 | > 100 | > 100 | > 100 | > 100 | > 100 | > 100 | > 100 |
| COCc1nc(C#N)c(N)o1 | – | > 10 | > 10 | > 10 | > 10 | > 10 | > 10 | > 10 | > 10 | > 10 | > 10 | – | > 10 | > 10 | > 10 | > 10 | – | > 10 | > 10 | > 10 |
| Cc1c(CNc2ccc(Cl)c(Cl)c2Cl)cnc2nc(N)nc(N)c12 | > 46.5 | 49 | 33.8 | > 55.4 | > 55.5 | 1.41 | 31.7 | > 49 | > 45.5 | 5.14 | > 48.1 | > 51.3 | > 100 | 13.6 | 50.8 | 3.16 | > 50.4 | > 100 | > 50 | – |
| O=c1[nH]c2ccccc2c(=O)c2cc3ccccc3cc12 | 21.4 | – | > 100 | > 100 | 56.3 | 37.7 | > 100 | > 100 | 28.2 | > 100 | > 100 | > 100 | > 100 | > 100 | 45.2 | 53.9 | > 100 | > 100 | 21.9 | > 100 |
| COc1ccc(Cc2nc3cc(C(F)(F)F)ccc3n2C[C@@H]2CCCN3CCCCC23)cc1 (stereo partly drawn) | 27.7 | 94.8 | 18.9 | 6.77 | 22.3 | 30.3 | 27.6 | 24 | 19 | > 64.8 | 26.8 | 12.8 | 30.7 | 24.9 | 28.5 | 12.3 | 27.8 | 8.88 | 20.3 | 20.3 |
| Cn1c2ccccc2n2c3ccccc3c3nnc(N)c-3c12 | 11.7 | > 100 | > 100 | > 100 | > 87.6 | > 100 | > 100 | > 100 | 3.68 | > 100 | > 100 | > 100 | > 100 | > 100 | 13.8 | > 100 | > 100 | 32.3 | 49.8 | > 100 |
| COc1cccc(O)c1-c1cc(=O)c2c(O)c(OC)c(OC)c(OC)c2o1 | > 100 | 58.4 | 39.1 | 80.5 | 42.9 | > 100 | > 100 | 66.7 | > 100 | > 100 | 55.4 | 66.3 | 71.7 | > 100 | 73.6 | 76.6 | > 100 | > 100 | > 100 | 39.4 |
| COc1ccc(CCN2C(=O)C(=O)C(C(=O)c3ccccc3)C2c2ccccc2)cc1OC (stereo not drawn) | > 100 | > 100 | > 100 | > 100 | > 100 | > 100 | > 100 | > 100 | > 100 | > 100 | > 100 | > 100 | > 100 | > 100 | > 100 | > 100 | > 100 | > 100 | > 100 | > 100 |
| COC(=O)c1nc2n(n1)-c1ccccc1C(=O)N(Cc1ccccc1)C2 | > 100 | > 100 | > 100 | > 100 | > 100 | > 100 | > 100 | > 100 | > 100 | > 100 | > 100 | > 100 | > 100 | > 100 | > 100 | > 100 | > 100 | > 100 | > 100 | > 100 |
| COC(=O)c1c(O)ccc2c1c1c(n2CCc2ccccc2)C(=O)c2ccccc2C1 | 80.3 | 34 | 32.5 | 44 | 31.3 | > 100 | 53.8 | 50.6 | 41 | > 100 | 67 | 47.5 | 53.1 | > 100 | 63.1 | – | – | > 100 | 37.9 | 43 |
| CCOC(=O)c1sc(N)nc1N1CCCC1 | > 100 | > 100 | > 100 | > 100 | > 100 | > 100 | > 100 | > 100 | – | > 100 | > 100 | > 100 | > 100 | > 100 | > 100 | > 100 | > 100 | > 100 | > 100 | > 100 |
| C=C1C(=O)O[C@H]2[C@@H]3O[C@@](C)(CC/C=C(\C)CCC[C@@H]2C)[C@H](O)C[C@@H]13 | > 100 | – | 8.86 | 27.4 | 84.3 | 17.1 | 38.8 | 22.1 | > 100 | > 100 | 53.6 | 9.54 | 7.62 | 16.2 | 8.1 | 27.8 | 31.2 | 53.3 | 16.2 | 6.36 |
